# Reference: publication PMC10245146, “CNS4 causes subtype‐specific changes in agonist efficacy and reversal potential of permeant cations in NMDA receptors” (Pharmacology Research & Perspectives, 2023)
# Experiments:
# GluN1/2A NMDA receptors = biological target: T1, GluN1/2A NMDA receptors (UniProt P35439+Q12879); assay: TEVC agonist dose-response, Xenopus oocytes expressing 1/2A; assay type: cell-based
# T1 construct: expressed in transfected cells; host or cells: Xenopus oocytes (cRNA injection)
# Description: NMDA receptor constructs: cDNA encoding the NMDA receptor1a subunit (GluN1a) was obtained from Dr. Nakanishi (Kyoto, Japan). cDNA encoding the GluN2B (pci_sepGluN2B), originally developed in the Malinow lab,[33] was purchased from Addgene (cat# 23998), Cambridge, MA. cDNA encoding the GluN2C and GluN2D were purchased from GenScript, New Jersey, USA. Mutated GluN1, 2A and 2B cDNA constructs capable of assembling as GluN1/2A/2B triheteromeric (1/2AB) receptors[34] were obtained from Dr. Paoletti (Laboratoire de Neurobiologie, CNRS). These constructs have been previously tested for 1/2AB receptor activity of GluN1/2A receptor‐selective potentiators.[35] […] Plasmids were linearized with NotI (GluN1a and all five GluN1 mutants) or Avrll (GluN2B), or BstB1 (GluN2C and GluN2D) and transcribed in vitro with T7 (GluN1a, GluN1/2A, GluN2B, GluN2C & GluN2D), and SP6 (GluN1 mutants) RNA polymerase using the mMessage mMachine transcription kits (Invitrogen by Thermo Fisher Scientific).
# Stage IV frog oocytes were obtained from Xenopus‐I, (Ann Arbor, MI, USA). NMDA receptor subunit cRNAs were suspended in nuclease free sterile water. GluN1A, GluN2B, GluN2C, GluN2D and GluN1/2A/2B cRNAs were mixed in a ratio of 1:1–3. 50 nL of the final cRNA mixture was microinjected (40–70 ng total) into the oocyte cytoplasm. Oocytes were incubated in ND‐96 solution at 18°C prior to electrophysiological recordings (2–5 days).
# Electrophysiological responses were measured using a standard two‐microelectrode voltage‐clamp workstation (Warner Instruments model OC‐725C) designed to provide a fast clamp of large cells. The recording buffer contained 116 mM NaCl, 2 mM KCl, 0.3 mM BaCl2, and 5 mM HEPES, pH 7.4. Response magnitude was determined in Xenopus oocytes expressing different NMDA receptor subunits (GluN1/2A, 1/2B, 1/2C, 1/2D, and 1/2A/2B) by the steady plateau response elicited by bath application of different agonist concentrations. […] All data points were obtained from the steady state currents unless stated otherwise. Dose–response relationships were fit to an appropriate curve‐fitting equation using GraphPad Prism‐7. Non‐linear regression was used to calculate EC50, IC50, and fold change or percentage maximal response. Curves were fit using the following equations as performed in the previous studies, [37]: Y=100/1+10^LogEC50−XorY=Bottom+Top−Bottom/1+10^LogEC50−X . Statistical significance was determined at the overall alpha level 0.05, using appropriate statistical methods as described in all figure captions. Technical and biological replicates are explicitly mentioned in each figure legend, as n = X (Y). X represents technical repeats (number of traces) and Y represents biological repeats (number of oocytes or HEK293T cells studied). […]
# GluN1/2D NMDA receptors = biological target: T2, GluN1/2D NMDA receptors (UniProt O15399+P35439); assay: Current-voltage (I-V) relationship, Xenopus oocytes expressing 1/2D; assay type: cell-based; details: for Difference in reversal potential (∆Erev) between W and WO CNS4: 100 μM CNS4; for Reversal potential (Erev): with 100 μM CNS4
# T2 construct: host or cells: Xenopus oocytes (cRNA injection)
# Protocol: There are two sets of recording solutions used for the I‐V assay: solutions with normal (1) and low (2) Ca^2+ concentrations. The normal Ca^2+ solutions contained (mM): 115 NaCl, 1 KCl, 1.8 CaCl2, 10 HEPES. PH was adjusted to 7.2. Low calcium solutions contained 0.018 mM CaCl2 and other components were the same as normal Ca^2+ solution. To study the effects of CNS4 in the absence of extracellular Na^+, NaCl was replaced with impermeable agent, N‐methyl‐D‐glucamine (NMDG, […]). HCl was used to dissolve the NMDG and to adjust the PH to 7.2. NMDG‐containing solutions are termed Nafree. […] There were four different agonist solutions used for each set of Ca^2+ recordings: (1) Agonist, (2) Agonist+CNS4, (3) Agonist in Nafree solution, (4) Agonist+CNS4 in Nafree solution. Each solution was applied to the oocytes in sequential order and the same order was followed for all I‐V recordings. Low Ca^2+ experiments were carried out in the same way as normal Ca^2+ experiments, except that they had 0.018 mM Ca^2+ in all four agonist and recording solutions. Steady state current responses evoked by these solutions at each voltage step were measured. Reversal potentials (Erev) were obtained from x‐intercept values when y = 0 after fitting the I‐V data using a third order polynomial, non‐linear curve fitting equation Y=B0+B1^*X+B2^*X^2+B3^*X^3 . Erev obtained from each oocyte with different agonists were compared in a pairwise manner. These differences were then averaged. Paired or unpaired student t‐test was performed to compare the data as mentioned in each figure legend.
# FIGURE 6 Effect on CNS4 on agonist induced current directions in 1/2D receptors. Current –Voltage (I‐V) relationship of 1/2D receptors was studied with normal (A) and low (B) CaCl2 containing extracellular solutions. […] Dark and light green circles indicate normal and low CaCl2 experiments, respectively. (C) Comparison of reversal potentials values. Dark and light red squares indicate equivalent I‐V experiments with NMDG (Nafree). Dotted and thick lines denote the absence (empty circles or squares) and presence (filled circles or squares) of 100 μM CNS4, respectively. Traces (Ai&ii, Bi&ii) represent the current response at −90 mv. N = 4 (4) & n = 7(7) for normal & low Ca^2+ assays respectively. Erev obtained from each oocyte with different agonists were compared in a pairwise manner. Paired student t‐test was performed to compare the data presented at Ci. Unpaired student's t‐test was performed to compare the difference in reversal potentials (triangles). *p < .05.
# T1 sequence (Q12879 23-1464, other chains not shown): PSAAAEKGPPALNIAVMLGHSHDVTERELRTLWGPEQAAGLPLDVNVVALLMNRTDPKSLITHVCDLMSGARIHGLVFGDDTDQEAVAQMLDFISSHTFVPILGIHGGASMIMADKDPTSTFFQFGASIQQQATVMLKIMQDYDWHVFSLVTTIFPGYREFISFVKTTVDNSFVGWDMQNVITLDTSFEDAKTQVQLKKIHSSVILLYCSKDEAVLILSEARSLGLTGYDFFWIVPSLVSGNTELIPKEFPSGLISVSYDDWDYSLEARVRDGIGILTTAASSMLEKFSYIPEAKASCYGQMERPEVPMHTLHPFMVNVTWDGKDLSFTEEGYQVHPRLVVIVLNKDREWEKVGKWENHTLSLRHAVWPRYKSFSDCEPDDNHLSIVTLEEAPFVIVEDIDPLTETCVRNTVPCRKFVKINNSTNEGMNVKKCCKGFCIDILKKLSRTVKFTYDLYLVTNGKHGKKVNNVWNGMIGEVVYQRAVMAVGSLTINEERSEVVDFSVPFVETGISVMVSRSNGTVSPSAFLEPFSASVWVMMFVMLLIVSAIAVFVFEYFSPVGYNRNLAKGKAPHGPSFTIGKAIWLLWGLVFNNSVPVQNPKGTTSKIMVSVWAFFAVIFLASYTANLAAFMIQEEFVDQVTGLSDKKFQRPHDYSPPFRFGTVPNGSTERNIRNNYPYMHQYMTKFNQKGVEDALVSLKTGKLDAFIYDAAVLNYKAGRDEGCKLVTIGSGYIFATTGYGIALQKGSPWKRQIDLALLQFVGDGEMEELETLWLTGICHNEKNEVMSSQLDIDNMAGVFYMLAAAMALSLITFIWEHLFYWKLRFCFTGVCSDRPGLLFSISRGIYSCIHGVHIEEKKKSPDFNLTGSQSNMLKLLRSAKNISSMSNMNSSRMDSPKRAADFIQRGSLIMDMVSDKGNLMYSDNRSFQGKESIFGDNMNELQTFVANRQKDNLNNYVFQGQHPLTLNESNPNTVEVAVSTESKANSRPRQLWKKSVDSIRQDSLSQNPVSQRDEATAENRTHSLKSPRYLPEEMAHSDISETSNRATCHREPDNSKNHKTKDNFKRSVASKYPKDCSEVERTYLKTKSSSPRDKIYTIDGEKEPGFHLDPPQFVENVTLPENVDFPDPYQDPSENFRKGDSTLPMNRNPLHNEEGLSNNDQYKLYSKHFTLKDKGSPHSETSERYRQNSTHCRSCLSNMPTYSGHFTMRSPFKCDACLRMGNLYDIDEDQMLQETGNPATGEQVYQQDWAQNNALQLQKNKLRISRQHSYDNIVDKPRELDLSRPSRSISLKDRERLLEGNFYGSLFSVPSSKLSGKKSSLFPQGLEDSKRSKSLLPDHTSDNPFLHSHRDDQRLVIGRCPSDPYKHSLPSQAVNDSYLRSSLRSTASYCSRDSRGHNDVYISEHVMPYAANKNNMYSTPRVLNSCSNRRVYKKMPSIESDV
# T2 sequence (O15399 28-1336, other chains not shown): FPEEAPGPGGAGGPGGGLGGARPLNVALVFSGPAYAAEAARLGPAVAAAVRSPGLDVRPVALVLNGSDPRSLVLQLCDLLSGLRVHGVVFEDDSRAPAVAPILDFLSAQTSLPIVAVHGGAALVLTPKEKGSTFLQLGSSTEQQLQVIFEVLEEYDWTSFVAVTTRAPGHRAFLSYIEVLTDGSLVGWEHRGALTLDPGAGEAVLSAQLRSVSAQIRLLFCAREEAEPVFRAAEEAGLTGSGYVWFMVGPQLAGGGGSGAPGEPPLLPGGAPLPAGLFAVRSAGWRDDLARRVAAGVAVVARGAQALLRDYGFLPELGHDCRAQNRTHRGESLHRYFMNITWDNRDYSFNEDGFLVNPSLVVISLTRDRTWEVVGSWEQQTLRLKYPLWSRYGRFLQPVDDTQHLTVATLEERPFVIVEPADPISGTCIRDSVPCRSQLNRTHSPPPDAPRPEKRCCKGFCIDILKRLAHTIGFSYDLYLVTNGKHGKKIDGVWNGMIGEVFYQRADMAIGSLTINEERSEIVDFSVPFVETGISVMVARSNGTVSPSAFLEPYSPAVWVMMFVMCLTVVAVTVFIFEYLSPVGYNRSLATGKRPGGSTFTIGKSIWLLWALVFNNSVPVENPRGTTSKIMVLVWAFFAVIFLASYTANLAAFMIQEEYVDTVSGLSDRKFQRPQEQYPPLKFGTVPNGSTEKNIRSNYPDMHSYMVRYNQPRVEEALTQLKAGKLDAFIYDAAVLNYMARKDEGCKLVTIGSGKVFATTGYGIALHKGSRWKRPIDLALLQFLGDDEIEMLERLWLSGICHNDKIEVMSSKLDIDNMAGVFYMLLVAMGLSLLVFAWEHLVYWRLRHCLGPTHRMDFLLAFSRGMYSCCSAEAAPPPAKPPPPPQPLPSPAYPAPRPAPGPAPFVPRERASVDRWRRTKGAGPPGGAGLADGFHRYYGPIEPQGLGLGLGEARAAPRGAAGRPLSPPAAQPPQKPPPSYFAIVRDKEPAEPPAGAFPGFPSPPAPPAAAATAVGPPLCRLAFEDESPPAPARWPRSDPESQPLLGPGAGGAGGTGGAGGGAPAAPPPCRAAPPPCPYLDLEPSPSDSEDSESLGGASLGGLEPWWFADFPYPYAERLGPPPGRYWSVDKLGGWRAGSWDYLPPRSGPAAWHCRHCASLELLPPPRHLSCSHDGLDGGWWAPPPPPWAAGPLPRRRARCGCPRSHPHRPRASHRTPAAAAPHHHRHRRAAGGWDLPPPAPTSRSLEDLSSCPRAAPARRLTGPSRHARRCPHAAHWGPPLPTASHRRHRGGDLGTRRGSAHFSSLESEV
smiles,measurement,setting,value
O=C(NC(=S)N1CCCCC1c1cccnc1)c1ccc(F)cc1 (centres unmarked) [CNS4],100 μM glutamate induced relative current amplitude (glutamate efficacy),"GluN1/2A NMDA receptors; absence of glycine, presence of CNS4, n = 6(3)",0.04 ± 0.02 fold
same,Glutamate efficacy,"GluN1/2A NMDA receptors; in the presence of 30 μM glycine and 30 μM CNS4, n = 9 (3)",297.8 ± 71.06 fold
same,Glycine efficacy: relative fold change in current at highest glycine concentration,"GluN1/2A NMDA receptors; with 30 μM CNS4, 100 μM glutamate constant, relative to 1 μM glycine, average ± SEM, p = .19",2.59 ± 0.36 fold
same,Glutamate efficacy: relative fold change in current at highest glutamate concentration,"GluN1/2A NMDA receptors; with 30 μM CNS4, 100 μM glycine constant, relative to 1 μM glutamate, p = .2898",2.95 ± 0.45 fold
same,Difference in reversal potential (∆Erev) between W and WO CNS4,"GluN1/2D NMDA receptors; low Ca2+, Nafree, n = 6",−6.22 ± 4.08 mV
same,Difference in reversal potential (∆Erev) between W and WO CNS4,"GluN1/2D NMDA receptors; low Ca2+, with Na+, n = 7",−26.55 ± 7.66 mV
same,Difference in reversal potential (∆Erev) between W and WO CNS4,"GluN1/2D NMDA receptors; normal Ca2+, Nafree, n = 4",−2.21 ± 2.14 mV
same,Difference in reversal potential (∆Erev) between W and WO CNS4,"GluN1/2D NMDA receptors; normal Ca2+, with Na+, n = 4",−0.22 ± 2.08 mV
same,Reversal potential (Erev),"GluN1/2D NMDA receptors; low Ca2+, with Na+, without CNS4 ‐44.02 ± 6.04, p = .013",−70.57 ± 6.44 mV
same,Reversal potential (Erev),"GluN1/2D NMDA receptors; normal Ca2+, Nafree, without CNS4 −77.99 ± 1.77, p = .378",−80.20 ± 2.54 mV
same,Reversal potential (Erev),"GluN1/2D NMDA receptors; normal Ca2+, with Na+, without CNS4 −61.43 ± 5.26, p = .919",−61.66 ± 5.55 mV
